# According to patent US20230059873A1, “EXPANSION OF STEM CELLS IN SUSPENSION IN A BIOREACTOR” (REPAIRON GMBH, priority 2019, published 2023):
# Assays:
# Format in all cases: cell-based, human
# iPSCs (TC1133) [1] = experiment: Long-term suspension culture of iPSCs in ambr15 bioreactor with automated passaging, ROCKi vs TZV (Example 1): aggregate size and expansion; conditions: for aggregate size: end of all passages except passage 0, ROCK inhibitor used during passaging
# Protocol: (§1) • 13 ml with 2.5×10^5 cells/ml per vessel in passage 0; 5×10^5 cells/ml per vessel at all other passages. • Medium Change: 62% Exchange per day • Cells: TC1133, NINDS • Culture conditions: 37° C., pH 7.4, dO 23.8%, 300 rpm downstirr.
# (§2) • 1. Y27632 treatment of iPSC aggregates at a final concentration of 10 μM two hours before dissociation. • 2. Two times washing with Versene: Stop of stirring for two minutes, removal of medium to 2 mL without disturbing sedimented aggregates, addition of Versene to 10 mL, starting the stirring (300 rpm, downwards) for 10 seconds. • 3. Removal of medium to 2 mL in the same way as described in the washing steps and addition of Versene to 5 mL. • 4. Stirring at 600 rpm for up to 15 min until dissociation is sufficient. […] Reduce stirring to 300 rpm. • 6. Cell count. • 7. Transfer a volume of cell suspension into a fresh ambr15 vessel resulting in a seeding concentration of 2-5×10^5 cells/mL, thereby diluting the cell dissociation reagent by addition of an excess volume (at least 5-fold) of iPS-Brew
# (§3) • ambr15 cell culture 24 Disposable bioreactors, Low temp, no sparge, Part number: 001-2B81 • StemMACS iPS-Brew XF, Basal Medium, Order no.: 130-107-086 • StemMACS™ iPS-Brew XF 50× Supplement; Order no.: 130-107-087 • ROCKi Y27632; Stemolecule • Versene Solution, Cat No.: 15040-033 • Ambr15 bioreactor, Sartorius Stedim • Nucleocounter NC-200 Type 900-0201 • Cellavista Cell Imager • Flow Cytometer: BD LSR II Special Order System
# [2] = test system: iPSCs (TC1133); OCT4, NANOG, TRA-1-60; experiment: Effect of ROCKi pretreatment (4 h) on expression of pluripotency-related markers in iPSCs (Example 4)
# Protocol: as §1
# • 1. Y27632 treatment of iPSC aggregates at a final concentration of 10 μM two hours before dissociation. • 2. Two times washing with Versene: Stop of stirring for two minutes, removal of medium to 2 mL without disturbing sedimented aggregates, addition of Versene to 10 mL, starting the stirring (300 rpm, downwards) for 10 seconds. • 3. Removal of medium to 2 mL in the same way as described in the washing steps and addition of Versene to 5 mL. • 4. Stirring at 600 rpm for up to 15 min until dissociation is sufficient. In progress controls have to be observed microscopically to assess the right degree of dissociation. • 5. Reduce stirring to 300 rpm. • 6. Cell count. • 7. Transfer a volume of cell suspension into a fresh ambr15 vessel resulting in a seeding concentration of 2-5×10^5 cells/mL, thereby diluting the cell dissociation reagent by addition of an excess volume (at least 5-fold) of iPS-Brew
# as §3
# The aim of this example was to analyze the effects of ROCKi pretreatment on passaging of iPSCs in suspension. Example 4 was performed like Examples 1-3 except that the ROCKi pretreatment was performed for 4 h.
# [3] = test system: iPSCs (TC1133); OCT4, TRA-1-60; experiment: Expression of pluripotency-related genes at end of passages in long-term suspension culture (Example 1)
# Protocol: as §1
# as §2, with “iPS-Brew […]” for “iPS-Brew”
# iPSCs (TC1133) [4] = experiment: Effect of ROCKi pretreatment (4 h) on passaging of iPSCs in suspension (Example 4): aggregate size and expansion rate
# Protocol: as §1
# as §2, with “Y27632 treatment of iPSC aggregates at a final concentration of 10 μM two hours before dissociation. • 2.” left out
# as §3
# The aim of this example was to analyze the effects of ROCKi pretreatment on passaging of iPSCs in suspension.
# [5] = day 3 after passaging, ROCKi pretreated
# [6] = day 4 of passage 0 (day of passaging, cells to be pretreated)
# [7] = day 5 after passaging, ROCKi pretreated
# [8] = day 3 after passaging, with ROCKi pretreatment
Compound,"accumulated fold increase (iPSCs (TC1133) [1]; after 43 days, 8 passages, calculated from starting cell numbers and splitting ratios)",aggregate size (iPSCs (TC1133) [1]),"NANOG expression [2, 5]","OCT4 expression [2, 5]","TRA-1-60 expression [2, 5]","NANOG expression [2, 6]","OCT4 expression [2, 6]","TRA-1-60 expression [2, 6]","NANOG expression [2, 7]","OCT4 expression [2, 7]","TRA-1-60 expression [2, 7]","expression of pluripotency-related genes (OCT4, TRA-1-60) ([3]; end of every analyzed passage)",aggregate size (iPSCs (TC1133) [4]; [8]),expansion rate (iPSCs (TC1133) [4]; [8]),aggregate size (iPSCs (TC1133) [4]; [6]),expansion rate (iPSCs (TC1133) [4]; [6]),"expansion rate (iPSCs (TC1133) [4]; day 5 after passaging, with ROCKi pretreatment)",expansion rates of iPSCs relative to ROCKi treated cells (iPSCs (TC1133) [1]; iPSCs passaged with TZV compared with ROCKi),"expression of pluripotency-related genes ([3]; end of passage 0, 2 and 3)"
"C[C@@H](N)[C@H]1CC[C@H](C(=O)Nc2ccncc2)CC1 [ROCKi, Y27632]",9.6×10^6,about 200 μm,93.6%,95.9%,99.1%,96.9%,97.8%,99.3%,81.8%,94.4%,98.7%,high,162.06±53 μm,3.14 fold increase,197.41±75 μm,12.34 fold increase,9.2 fold increase,,
"O=C(NCc1ccccc1)c1csc(Nc2ccncn2)n1 [TZV, thiazovivin]",,about 200 μm,,,,,,,,,,,,,,,,comparable,high
